Laboratory results as given in PubChem BioAssay (NCI).
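These data come from cells grown in 96-well plates and exposed to compound for 48 hours at five concentrations. GI50 = concentration required for 50% inhibition of growth. TGI: total growth inhibition.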

What was measured:
Assay in all cases: NCI tumour cell line growth inhibition, 48 h
[1] = tested on: 786-0 renal
[2] = tested on: A498 renal
[3] = tested on: A549 NSCLC
[4] = tested on: ACHN renal
[5] = tested on: BT-549 breast
[6] = tested on: CCRF-CEM leukemia
[7] = tested on: COLO 205 colon
[8] = tested on: DU-145 prostate
[9] = tested on: EKVX NSCLC
[10] = tested on: HCC-2998 colon
[11] = tested on: HCT-15 colon
[12] = tested on: HL-60(TB) leukemia
[13] = tested on: HOP-62 NSCLC
[14] = tested on: HOP-92 NSCLC
[15] = tested on: HS 578T breast
[16] = tested on: HT29 colon
[17] = tested on: IGROV1 ovarian
[18] = tested on: K-562 leukemia
[19] = tested on: KM12 colon
[20] = tested on: LOX IMVI melanoma
[21] = tested on: M14 melanoma
[22] = tested on: MALME-3M melanoma
[23] = tested on: MDA-MB-231 breast
[24] = tested on: MDA-MB-435
[25] = tested on: MOLT-4 leukemia
[26] = tested on: NCI-H226 lung
[27] = tested on: NCI-H23 lung
[28] = tested on: NCI-H460 lung
[29] = tested on: NCI-H522 lung
[30] = tested on: NCI/ADR-RES ovarian
[31] = tested on: OVCAR-3 ovarian
[32] = tested on: OVCAR-4 ovarian
[33] = tested on: OVCAR-5 ovarian
[34] = tested on: OVCAR-8 ovarian
[35] = tested on: PC-3 prostate
[36] = tested on: RPMI-8226 leukemia
[37] = tested on: RXF 393 renal
[38] = tested on: SF-268 CNS
[39] = tested on: SF-295 CNS
[40] = tested on: SF-539 CNS
[41] = tested on: SK-MEL-2 melanoma
[42] = tested on: SK-MEL-28 melanoma
[43] = tested on: SK-MEL-5 melanoma
[44] = tested on: SK-OV-3 ovarian
[45] = tested on: SN12C renal
[46] = tested on: SNB-19 CNS
[47] = tested on: SNB-75 CNS
[48] = tested on: SR leukemia
[49] = tested on: SW-620 colon
[50] = tested on: T-47D breast
[51] = tested on: TK-10 renal
[52] = tested on: U251 CNS
[53] = tested on: UACC-257 melanoma
[54] = tested on: UACC-62 melanoma
[55] = tested on: UO-31 renal
[56] = tested on: CAKI-1 renal
[57] = tested on: HCT-116 colon
[58] = tested on: MCF7 breast

O=C(C[n+]1cccc2cc(Cl)ccc21)c1ccc2c(c1)CCCC2
GI50 [1]: 2.01 µM
TGI [1]: 5.25 µM
GI50 [2]: 3.56 µM
TGI [2]: 13.3 µM
GI50 [3]: 3.7 µM
TGI [3]: 13.5 µM
GI50 [4]: 4.91 µM
TGI [4]: 18.5 µM
GI50 [5]: 1.11 µM
TGI [5]: 2.97 µM
GI50 [6]: 1.59 µM
TGI [6]: 8.74 µM
GI50 [7]: 1.5 µM
TGI [7]: 3.01 µM
GI50 [8]: 1.46 µM
TGI [8]: 3.33 µM
GI50 [9]: 2.46 µM
TGI [9]: 11.3 µM
GI50 [10]: 1.6 µM
TGI [10]: 3.28 µM
GI50 [11]: 11.8 µM
TGI [11]: 31.7 µM
GI50 [12]: 0.882 µM
TGI [12]: 3.95 µM
GI50 [13]: 1.65 µM
TGI [13]: 3.85 µM
GI50 [14]: 1.58 µM
TGI [14]: 3.22 µM
GI50 [15]: 2.03 µM
TGI [15]: 5.43 µM
GI50 [16]: 1.66 µM
TGI [16]: 3.44 µM
GI50 [17]: 1.52 µM
TGI [17]: 4.08 µM
GI50 [18]: 1.32 µM
TGI [18]: 10.3 µM
GI50 [19]: 1.46 µM
TGI [19]: 3.36 µM
GI50 [20]: 0.831 µM
TGI [20]: 2.24 µM
GI50 [21]: 1.48 µM
TGI [21]: 3.2 µM
GI50 [22]: 1.2 µM
TGI [22]: 2.63 µM
GI50 [23]: 1.5 µM
TGI [23]: 3.25 µM
GI50 [24]: 1.61 µM
TGI [24]: 3.38 µM
GI50 [25]: 1.41 µM
TGI [25]: 4.5 µM
GI50 [26]: 1.48 µM
TGI [26]: 3.48 µM
GI50 [27]: 1.14 µM
TGI [27]: 4.44 µM
GI50 [28]: 1.86 µM
TGI [28]: 3.68 µM
GI50 [29]: 1.51 µM
TGI [29]: 4.33 µM
GI50 [30]: 19.9 µM
TGI [30]: 67.3 µM
GI50 [31]: 0.875 µM
TGI [31]: 2.26 µM
GI50 [32]: 0.982 µM
TGI [32]: 2.99 µM
GI50 [33]: 1.84 µM
TGI [33]: 4.54 µM
GI50 [34]: 2.98 µM
TGI [34]: 11.2 µM
GI50 [35]: 0.933 µM
TGI [35]: 3.61 µM
GI50 [36]: 0.91 µM
TGI [36]: 4.09 µM
GI50 [37]: 1.69 µM
TGI [37]: 3.81 µM
GI50 [38]: 1.44 µM
TGI [38]: 3.29 µM
GI50 [39]: 1.77 µM
TGI [39]: 4.22 µM
GI50 [40]: 1.4 µM
TGI [40]: 2.85 µM
GI50 [41]: 1.68 µM
TGI [41]: 3.41 µM
GI50 [42]: 1.62 µM
TGI [42]: 3.19 µM
GI50 [43]: 1.26 µM
TGI [43]: 2.55 µM
GI50 [44]: 1.72 µM
TGI [44]: 6.94 µM
GI50 [45]: 1.27 µM
TGI [45]: 3.04 µM
GI50 [46]: 1.12 µM
TGI [46]: 2.65 µM
GI50 [47]: 1.35 µM
TGI [47]: 3.2 µM
GI50 [48]: 0.758 µM
TGI [48]: 6.18 µM
GI50 [49]: 2.03 µM
TGI [49]: 4.97 µM
GI50 [50]: 1.09 µM
TGI [50]: 2.71 µM
GI50 [51]: 2.21 µM
TGI [51]: 4.65 µM
GI50 [52]: 0.595 µM
TGI [52]: 1.86 µM
GI50 [53]: 1.5 µM
TGI [53]: 3.58 µM
GI50 [54]: 1.54 µM
TGI [54]: 3.49 µM
GI50 [55]: 5.71 µM
TGI [55]: 20.4 µM

CSc1nc(-c2cc3ccccc3o2)cc(-c2ccc(Cl)cc2)c1C#N
GI50 [1]: 7.36 µM
TGI [1]: 76.8 µM
GI50 [2]: 27 µM
TGI [2]: > 100 µM
GI50 [3]: 4.48 µM
TGI [3]: > 100 µM
GI50 [4]: 3.03 µM
TGI [4]: 67.7 µM
GI50 [5]: 23.8 µM
TGI [5]: 75.7 µM
GI50 [56]: 5.28 µM
TGI [56]: > 73.4 µM
GI50 [6]: > 100 µM
TGI [6]: > 100 µM
GI50 [8]: 3.87 µM
TGI [8]: > 100 µM
GI50 [9]: 0.918 µM
TGI [9]: > 100 µM
GI50 [57]: 5.11 µM
TGI [57]: > 100 µM
GI50 [12]: > 100 µM
TGI [12]: > 100 µM
GI50 [13]: 12.7 µM
TGI [13]: > 79.6 µM
GI50 [14]: 3.4 µM
TGI [14]: 15.2 µM
GI50 [15]: 22.2 µM
TGI [15]: > 64.3 µM
GI50 [17]: 0.706 µM
TGI [17]: 13.4 µM
GI50 [18]: > 100 µM
TGI [18]: > 100 µM
GI50 [19]: > 100 µM
TGI [19]: > 100 µM
GI50 [20]: 9.53 µM
TGI [20]: > 100 µM
GI50 [21]: 45.5 µM
TGI [21]: > 100 µM
GI50 [22]: 20.5 µM
TGI [22]: > 100 µM
GI50 [58]: 0.352 µM
TGI [58]: > 100 µM
GI50 [23]: 3.58 µM
TGI [23]: 50 µM
GI50 [24]: > 100 µM
TGI [24]: > 100 µM
GI50 [25]: > 85 µM
TGI [25]: > 100 µM
GI50 [26]: 6.28 µM
TGI [26]: > 100 µM
GI50 [27]: 9.24 µM
TGI [27]: > 100 µM
GI50 [29]: 8.67 µM
TGI [29]: > 100 µM
GI50 [30]: 44.9 µM
TGI [30]: > 100 µM
GI50 [31]: 2.58 µM
TGI [31]: > 24.2 µM
GI50 [32]: > 100 µM
TGI [32]: > 100 µM
GI50 [33]: > 84.6 µM
TGI [33]: > 100 µM
GI50 [34]: 3.57 µM
TGI [34]: > 100 µM
GI50 [35]: 8.82 µM
TGI [35]: > 100 µM
GI50 [36]: > 67.6 µM
TGI [36]: > 100 µM
GI50 [37]: 3.7 µM
TGI [37]: 20.1 µM
GI50 [38]: 18 µM
TGI [38]: > 80.1 µM
GI50 [39]: 6.17 µM
TGI [39]: 37.8 µM
GI50 [40]: 2.99 µM
TGI [40]: 14.6 µM
GI50 [42]: > 100 µM
TGI [42]: > 100 µM
GI50 [43]: > 100 µM
TGI [43]: > 100 µM
GI50 [44]: 5.29 µM
TGI [44]: 56.8 µM
GI50 [45]: 26.9 µM
TGI [45]: > 100 µM
GI50 [46]: 19.7 µM
TGI [46]: > 76.5 µM
GI50 [47]: 5.56 µM
TGI [47]: 26.6 µM
GI50 [48]: 28.6 µM
TGI [48]: > 100 µM
GI50 [49]: > 100 µM
TGI [49]: > 100 µM
GI50 [50]: 0.93 µM
TGI [50]: > 100 µM
GI50 [51]: 8.07 µM
TGI [51]: 31.8 µM
GI50 [52]: 3.76 µM
TGI [52]: 28.4 µM
GI50 [53]: > 100 µM
TGI [53]: > 100 µM
GI50 [54]: 5.03 µM
TGI [54]: > 49.8 µM
GI50 [55]: 1.73 µM
TGI [55]: > 100 µM

COc1ccc2c(c1)n([O-])c1cc(C#N)ccc1[n+]2=O
TGI [1]: 30.8 µM
TGI [3]: 10.9 µM
TGI [4]: 12.4 µM
TGI [5]: 51.6 µM
TGI [56]: 14.6 µM
TGI [8]: 16.6 µM
TGI [9]: 79.1 µM
TGI [57]: 24 µM
TGI [11]: 4.82 µM
TGI [12]: 71.6 µM
TGI [13]: 15.6 µM
TGI [14]: 28.6 µM
TGI [15]: 18.6 µM
TGI [16]: 10.1 µM
TGI [17]: 26.8 µM
TGI [18]: 97.4 µM
TGI [19]: 12.5 µM
TGI [20]: 17.6 µM
TGI [21]: 1.67 µM
TGI [22]: 8.06 µM
TGI [58]: > 100 µM
TGI [23]: 59.5 µM
TGI [24]: 6.12 µM
TGI [25]: 1.38 µM
TGI [26]: 21.7 µM
TGI [27]: 4.79 µM
TGI [28]: > 100 µM
TGI [29]: 27.7 µM
TGI [30]: 62.9 µM
TGI [31]: 26.1 µM
TGI [32]: 91 µM
TGI [33]: 35.9 µM
TGI [34]: > 100 µM
TGI [35]: 21.7 µM
TGI [37]: > 100 µM
TGI [38]: 81.3 µM
TGI [39]: 3.77 µM
TGI [40]: 16.2 µM
TGI [41]: 19.2 µM
TGI [42]: 40.2 µM
TGI [43]: 2.6 µM
TGI [44]: 43.1 µM
TGI [45]: 20.6 µM
TGI [46]: > 100 µM
TGI [47]: 20.3 µM
TGI [48]: 18.9 µM
TGI [49]: 56.3 µM
TGI [50]: 48.6 µM
TGI [51]: 10.8 µM
TGI [52]: 16.7 µM
TGI [53]: 19.4 µM
TGI [54]: 11 µM
TGI [55]: 23.1 µM
